Data reported in the CheMixHub viscosity set.
± gives the uncertainty stated by the source.

Test: xn = mol fraction of the nth substance listed

c1ccc(Oc2ccccc2)cc1 + ClC(Cl)Cl
298.15 K, 101 kPa
Conditions	viscosity [mPa·s]
x1 = 0.3136	2.22 ± 0.059
x1 = 0.5696	1.39 ± 0.037
x1 = 0.817	0.83 ± 0.022

CC(C)[C@@H]1CC[C@@H](C)C[C@H]1O + CCCCO
Conditions	viscosity [mPa·s]
298.15 K, 101.33 kPa, x1 = 0.5	18.77

Cc1ccccc1C + C1COCCO1
308.15 K, 101 kPa
Conditions	viscosity [mPa·s]
x2 = 0.1	0.676 ± 0.009
x2 = 0.2	0.699 ± 0.009
x2 = 0.3	0.723 ± 0.009
x2 = 0.5	0.774 ± 0.01
x2 = 0.6	0.806 ± 0.01
x2 = 0.7	0.841 ± 0.011
x2 = 0.8	0.879 ± 0.011
x2 = 0.9	0.922 ± 0.012

CCOC(=O)OCC + COC(=O)OC
298.15 K, 101 kPa
Conditions	viscosity [mPa·s]
x1 = 0.0355	0.585 ± 0.005
x1 = 0.0848	0.594 ± 0.005
x1 = 0.1396	0.603 ± 0.005
x1 = 0.2098	0.615 ± 0.005
x1 = 0.2886	0.628 ± 0.005
x1 = 0.3619	0.641 ± 0.005
x1 = 0.4542	0.657 ± 0.006
x1 = 0.5424	0.672 ± 0.006
x1 = 0.6375	0.689 ± 0.006
x1 = 0.7315	0.706 ± 0.006
x1 = 0.838	0.726 ± 0.006
x1 = 0.8896	0.736 ± 0.006
x1 = 0.9462	0.747 ± 0.006

CCC#N + CS(C)=O
viscosity [mPa·s]
Conditions	298.15 K	303.15 K	308.15 K	313.15 K	318.15 K	323.15 K
101 kPa, x2 = 0.1078	0.49 ± 0.01	0.47 ± 0.01	0.44 ± 0.01	0.43 ± 0.01	0.4 ± 0.01	0.35 ± 0.01
101 kPa, x2 = 0.2092	0.56 ± 0.01	0.54 ± 0.01	0.51 ± 0.01	0.48 ± 0.01	0.46 ± 0.01	0.4 ± 0.01
101 kPa, x2 = 0.3026	0.63 ± 0.01	0.6 ± 0.01	0.57 ± 0.01	0.55 ± 0.01	0.52 ± 0.01	0.45 ± 0.01
101 kPa, x2 = 0.3983	0.72 ± 0.02	0.69 ± 0.02	0.65 ± 0.01	0.62 ± 0.01	0.6 ± 0.01	0.51 ± 0.01
101 kPa, x2 = 0.4995	0.85 ± 0.02	0.81 ± 0.02	0.75 ± 0.02	0.71 ± 0.02	0.68 ± 0.02	0.58 ± 0.01
101 kPa, x2 = 0.6026	1.01 ± 0.02	0.96 ± 0.02	0.89 ± 0.02	0.84 ± 0.02	0.79 ± 0.02	0.68 ± 0.02
101 kPa, x2 = 0.7077	1.2 ± 0.03	1.12 ± 0.02	1.04 ± 0.02	0.98 ± 0.02	0.92 ± 0.02	0.78 ± 0.02
101 kPa, x2 = 0.7966	1.39 ± 0.03	1.29 ± 0.03	1.2 ± 0.03	1.1 ± 0.02	1.05 ± 0.02	0.89 ± 0.02
101 kPa, x2 = 0.9014	1.67 ± 0.04	1.54 ± 0.03	1.4 ± 0.03	1.31 ± 0.03	1.23 ± 0.03	1.03 ± 0.02
101.33 kPa, x1 = 0.1009	–	1.547 ± 0.0093	–	–	–	–
101.33 kPa, x1 = 0.202	–	1.322 ± 0.0081	–	–	–	–
101.33 kPa, x1 = 0.3031	–	1.12 ± 0.007	–	–	–	–
101.33 kPa, x1 = 0.4043	–	0.9436 ± 0.006	–	–	–	–
101.33 kPa, x1 = 0.499	–	0.8012 ± 0.0053	–	–	–	–
101.33 kPa, x1 = 0.6002	–	0.6745 ± 0.0047	–	–	–	–
101.33 kPa, x1 = 0.7153	–	0.5619 ± 0.0042	–	–	–	–
101.33 kPa, x1 = 0.798	–	0.4937 ± 0.0039	–	–	–	–
101.33 kPa, x1 = 0.8994	–	0.4328 ± 0.0036	–	–	–	–

CCOC(=O)OCC + CC(C)OC(C)C
viscosity [mPa·s], 100 kPa
Conditions	x1 = 0.0986	x1 = 0.1988	x1 = 0.3012	x1 = 0.4026	x1 = 0.4998	x1 = 0.5976	x1 = 0.7008	x1 = 0.8014	x1 = 0.9009
303.15 K	0.325 ± 0.007	0.351 ± 0.008	0.379 ± 0.008	0.409 ± 0.009	0.442 ± 0.01	0.481 ± 0.01	0.528 ± 0.011	0.58 ± 0.012	0.636 ± 0.013
308.15 K	0.309 ± 0.007	0.332 ± 0.007	0.359 ± 0.008	0.387 ± 0.008	0.419 ± 0.009	0.455 ± 0.01	0.497 ± 0.011	0.546 ± 0.012	0.599 ± 0.013
313.15 K	0.296 ± 0.007	0.317 ± 0.007	0.341 ± 0.008	0.369 ± 0.008	0.398 ± 0.009	0.432 ± 0.009	0.472 ± 0.01	0.516 ± 0.011	0.566 ± 0.012

CCCCC(CC)COC(=O)c1ccc(C(=O)OCC(CC)CCCC)c(C(=O)OCC(CC)CCCC)c1 (configuration not stated) + O
101 kPa
Conditions	viscosity [mPa·s]
303.14 K, x2 = 0.019	151.1 ± 6.6
303.15 K, x2 = 0.0111	152.7 ± 5.4
303.15 K, x2 = 0.0169	151.2 ± 5.3
303.16 K, x2 = 0.00366	153.9 ± 5.4
303.16 K, x2 = 0.00372	153.9 ± 5.4
303.16 K, x2 = 0.00843	153.1 ± 5.4
303.16 K, x2 = 0.0124	152.2 ± 5.3
303.16 K, x2 = 0.0155	151.6 ± 5.9
303.16 K, x2 = 0.0164	151.4 ± 5.4

CC(C)[C@@H]1CC[C@@H](C)C[C@H]1O + CCCCCCCCO
Conditions	viscosity [mPa·s]
298.15 K, 101.33 kPa, x1 = 0.5	13.1

COCCOCCO + CCOC(=O)OCC
298.15 K, 101.33 kPa
Conditions	viscosity [mPa·s]
x1 = 0.0177	0.765 ± 0.008
x1 = 0.0409	0.784 ± 0.009
x1 = 0.0525	0.794 ± 0.009
x1 = 0.0688	0.809 ± 0.009
x1 = 0.0808	0.819 ± 0.009
x1 = 0.0974	0.834 ± 0.009
x1 = 0.1182	0.856 ± 0.009
x1 = 0.1376	0.878 ± 0.009
x1 = 0.1665	0.911 ± 0.01
x1 = 0.1973	0.949 ± 0.01
x1 = 0.2247	0.98 ± 0.01
x1 = 0.26	0.984 ± 0.1
x1 = 0.3011	1.095 ± 0.011
x1 = 0.3362	1.148 ± 0.012
x1 = 0.4104	1.282 ± 0.013
x1 = 0.438	1.337 ± 0.013
x1 = 0.4644	1.394 ± 0.014
x1 = 0.4835	1.436 ± 0.014
x1 = 0.5151	1.511 ± 0.015
x1 = 0.5529	1.61 ± 0.016
x1 = 0.5929	1.721 ± 0.018
x1 = 0.6445	1.874 ± 0.019
x1 = 0.6774	1.978 ± 0.02
x1 = 0.7326	2.167 ± 0.023
x1 = 0.7642	2.295 ± 0.024
x1 = 0.8034	2.456 ± 0.026
x1 = 0.8312	2.576 ± 0.028
x1 = 0.861	2.709 ± 0.029
x1 = 0.8942	2.87 ± 0.032
x1 = 0.9328	3.065 ± 0.034
x1 = 0.9487	3.15 ± 0.035
x1 = 0.9554	3.189 ± 0.036
x1 = 0.9613	3.221 ± 0.036

c1ccc(Oc2ccccc2)cc1 + CC(C)=O
298.15 K, 101 kPa
Conditions	viscosity [mPa·s]
x2 = 0.4843	1.339 ± 0.035
x2 = 0.7306	0.714 ± 0.019
x2 = 0.894	0.439 ± 0.012

CC(C)CCC[C@@H](C)[C@H]1CC[C@H]2[C@@H]3CC=C4C[C@@H](O)CC[C@]4(C)[C@H]3CC[C@]12C + ClC(Cl)Cl
viscosity [mPa·s], 101.33 kPa
Conditions	x1 = 0.00286	x1 = 0.0048	x1 = 0.0081	x1 = 0.0138	x1 = 0.01748	x1 = 0.0223	x1 = 0.02849	x1 = 0.03663
298 K	0.557 ± 0.007	0.57 ± 0.007	0.594 ± 0.008	0.638 ± 0.008	0.667 ± 0.008	0.709 ± 0.009	0.766 ± 0.009	0.848 ± 0.01
303 K	0.534 ± 0.007	0.547 ± 0.007	0.568 ± 0.007	0.608 ± 0.008	0.635 ± 0.008	0.673 ± 0.008	0.724 ± 0.009	0.798 ± 0.01
313 K	0.494 ± 0.007	0.504 ± 0.007	0.522 ± 0.007	0.555 ± 0.007	0.578 ± 0.007	0.609 ± 0.008	0.652 ± 0.008	0.712 ± 0.009
323 K	0.459 ± 0.006	0.468 ± 0.006	0.483 ± 0.006	0.511 ± 0.007	0.529 ± 0.007	0.555 ± 0.007	0.589 ± 0.008	0.637 ± 0.008

CCC#N + CCOC(C)=O
303.15 K, 101.33 kPa
Conditions	viscosity [mPa·s]
x1 = 0.1019	0.4034 ± 0.0035
x1 = 0.1916	0.4041 ± 0.0035
x1 = 0.2921	0.4038 ± 0.0035
x1 = 0.3979	0.4025 ± 0.0035
x1 = 0.4953	0.4012 ± 0.0035
x1 = 0.5954	0.3976 ± 0.0035
x1 = 0.6959	0.3954 ± 0.0035
x1 = 0.7981	0.3935 ± 0.0035
x1 = 0.9006	0.3915 ± 0.0035
